Results on three compounds are retold here after patent US9242962B2, “Method of treatment” (GlaxoSmithKline Intellectual Property (No. 2) Limited, priority 2011, dated 2016).

Experiment [1] relates to CD4+ T cells. Nature of the experiment: T cell receptor-induced CD4+ T cell proliferation (CFSE, flow cytometry). In kind it is cell-based, human. To be noted: 10 μg/mL αCD3 + 2 μg/mL αCD28, 6 days; for IC50: Homo sapiens, CD4+ T, 144 h, division index by CFSE, n=4, ±sem, read-out: pIC50, T cell receptor-induced proliferation of CD4+ T cells (converted). As to the method:
(§1) 15 mls ficoll was added to 8×50 mL accuspin tubes per donor and centrifuged at 2000 RPM for 1 min. Whole blood samples (200 mL+1% heparin) were collected from human donors. Approximately 25 ml blood was added to each ficoll pre-filled 50 ml falcon tubes with filter and centrifuged at 1500 RPM for 20 min with the brake off to avoid disturbing cell separation. 45 ml with PBS was added to the PBMC fraction of each tube and centrifuged at 1500 RPM for 10 min with brake. Supernatant were discarded and cell pellets resuspended in 2 ml PBS. Cell suspensions for each donor were recombined into a single falcon tube, made up to 45 ml with PBS and centrifuged at 1500 RPM for 10 min. CD4+ T cells were isolated by negative depletion using a CD4 T cell Isolation Kit from Miltenyi Biotech according to manufacturers protocol.
96-well flat-bottom plates were coated with 10 μg/mL anti-CD3+2 μg/mL anti-CD28 at 4° C. overnight. The following day, plates were washed with PBS. For proliferation studies, cells were stained with CFSE (Invitrogen) according to manufacturer's protocol. […] Cells were then transferred to 96-well round-bottom plates, washed and then analysed by flow cytometry.
(§2) Anti-CD3 (HU CD3 NALE MAB UCHT1; Cat #555329) and anti-CD28 (HU CD28 NALE MAB CD28.2; Cat #: 555725), were obtained from BD Pharmingen and dissolved in Dulbecco's Phosphate Buffered Saline (with Ca2+/Mg2+; Gibco). Ficoll-paque (Cat #17-1440-03) was obtained from GE Healthcare. The CD4+ T cell isolation kit (Cat #130-091-155) was obtained from Miltenyi Biotec. Cells were cultured in RPMI 1640 containing 10% FCS+1% pen/strep+1% L-glutamine. The CellTrace CFSE cell proliferation kit (Cat #C34554) was obtained from Invitrogen. Compound A, Compound B and Compound C were all synthesised in house and dissolved in 100% DMSO.
Flowjo Software was used to calculate a division index using fluorescence intensity. Data are expressed as mean±standard error of the mean; n values are the numbers of human donors used. pIC50 values were generated using GraphPad Prism software and non-linear sigmoid dose curve-fit.
For orientation: In flow cytometry, cells or beads pass a laser one at a time.

Experiment [2] deals with CD4+ T cells. In words: T cell receptor-induced cytokine production in CD4+ T cells (multiplex ELISA). In kind it is cell-based, human. To be noted: for IC50: Homo sapiens, CD4+ T, n=4, ±sem, read-out: pIC50, T cell receptor-induced production of IL-2 in CD4+ T cells (converted). As to the method:
as §1
96-well flat-bottom plates were coated with 10 μg/mL anti-CD3+2 μg/mL anti-CD28 at 4° C. overnight. The following day, plates were washed with PBS. For cytokine production studies, cells were added to anti-CD3+anti-CD28 pre-coated 96-well plates at 0.4×10^6 cells/well in the presence of EZH1/EZH2 inhibitors or vehicle and incubated at 37° C./5% CO2. Supernatants were taken 18 h (IL-2) or 72 h (IL-10, IL-13, IL-17, IFN, TNF) for determination of cytokine production by multiplex ELISA from Mesoscale discovery according to the manufacturers protocols.
as §2
Data were analysed using Excel and are expressed as mean±standard error of the mean; n values are the numbers of human donors used. pIC50 values were generated using GraphPad Prism software and non-linear sigmoid dose curve-fit.
Background: An ELISA detects its analyte on a solid surface through an enzyme-linked reagent.

As to `CCCc1cc(C)[nH]c(=O)c1CNC(=O)c1cc(-c2ccc(N3CCN(C)CC3)nc2)cc2c1cnn2C(C)C` [Compound A, 1-(1-methylethyl)-N-[(6-methyl-2-oxo-4-propyl-1,2-dihydro-3-pyridinyl)methyl]-6-[6-(4-methyl-1-piperazinyl)-3-pyridinyl]-1H-indazole-4-carboxamide], the results for the IC50 in the experiment on CD4+ T cells [1] and in the experiment with CD4+ T cells [2] (18 h post stimulation) were 5.01 µM and 0.575 µM, respectively.
As to `Cc1ccc(CNC(=O)c2cc(C3CC3)nc3c2cnn3C(C)C)c(=O)[nH]1` [Compound C, 6-cyclopropyl-1-(1-methylethyl)-N-[(6-methyl-2-oxo-1,2-dihydro-3-pyridinyl)methyl]-1H-pyrazolo[3,4-b]pyridine-4-carboxamide], the “effect on T cell receptor-induced proliferation of CD4+ T cells” value with CD4+ T cells [1] (n=4) is listed as “had no effect”. The “effect on T cell receptor-induced production of IL-2 in CD4+ T cells” value with CD4+ T cells [2] (18 h post stimulation, n=4, a pIC50 could not be calculated) was “impaired”. For the same compound, the “effect on T cell receptor-induced production of IL-17 or IFN in CD4+ T cells” value in the experiment with CD4+ T cells [2] (72 h post stimulation, n=4) is “had no effect”. Also, the “effect on IL-10, IL-13 & TNF production” value in the experiment with CD4+ T cells [2] (High concentrations (i.e. >15 μM), 72 h, n=4) was “reduced”.
Regarding `Cc1cc(C)c(CNC(=O)c2cc(-c3ccc(N4CCN(C)CC4)nc3)cc3c2c(C)cn3C(C)C)c(=O)[nH]1` [Compound B, N-[(4,6-dimethyl-2-oxo-1,2-dihydro-3-pyridinyl)methyl]-3-methyl-1-(1-methylethyl)-6-[6-(4-methyl-1-piperazinyl)-3-pyridinyl]-1H-indole-4-carboxamide], the IC50 in the experiment with CD4+ T cells [1] was 11.7 µM; in the experiment with CD4+ T cells [2] (18 h post stimulation), 1.74 µM.
